Converted amounts (≈) assume the structure as drawn. The source made the active and inactive calls. No cut-off for these calls is given here.
Test system: A549
Experiment: In vitro cytotoxic activity was determined against lung carcinoma (A549) cell line
Type: functional
Settings: Homo sapiens, read-out: ED50 (the source's name)

| Structure (SMILES) | EC50 |
| --- | --- |
| CCCn1c2cc(OC)ccc2c2cc[n+](C)c(C)c21.[I-] | 4 µg/mL |
| Cc1nccc2c1[nH]c1ccccc12 [HARMAN] | 9.3 µg/mL (≈ 51 µM) |
| CC(=O)Oc1ccc2c(c1)[nH]c1c(C)nccc12 | 4.3 µg/mL (≈ 17.9 µM) |
| CCn1c2cc(OC)ccc2c2ccnc(C)c21 | 4.2 µg/mL (≈ 17.5 µM) |
| Br.COc1cc2[nH]c3c(C)nccc3c2cc1Br | 3.9 µg/mL |
| CCC[n+]1ccc2c([nH]c3cc(OC)ccc32)c1C.[I-] | 15 µg/mL |
| CCCCn1c2cc(OC)ccc2c2ccnc(C)c21 | 6 µg/mL (≈ 22.4 µM) |
| CCC(CC)C1NC(C(=O)O)Cc2c1[nH]c1cc(OC)ccc21 (stereo unspecified) | > 20 µg/mL |
| COc1ccc2c3c([nH]c2c1)C(C)N(N=O)CC3 (stereo unspecified) | > 10 µg/mL |
| Cc1cc(O)n2c(n1)nc1ccccc12 | > 10 µg/mL |
| COc1ccc2c3ccn(C)c(C)c-3nc2c1 | 2.7 µg/mL (≈ 11.9 µM) |
| COc1ccc2c3ccnc(C)c3n(C)c2c1 | 4.2 µg/mL (≈ 18.6 µM) |
| Cc1nccc2c1[nH]c1cc(OC(C)C)ccc12 | 17 µg/mL (≈ 70.7 µM) |

Test system: CAKI-1
Experiment: In vitro cytotoxic activity was determined against renal cancer (CAKI-1) cell line
Type: functional
Settings: Homo sapiens, read-out: ED50 (the source's name)

| Structure (SMILES) | EC50 |
| --- | --- |
| CCCn1c2cc(OC)ccc2c2cc[n+](C)c(C)c21.[I-] | 9.2 µg/mL |
| Cc1nccc2c1[nH]c1ccccc12 [HARMAN] | 8 µg/mL (≈ 43.9 µM) |
| CC(=O)Oc1ccc2c(c1)[nH]c1c(C)nccc12 | 10.2 µg/mL (≈ 42.5 µM) |
| CCn1c2cc(OC)ccc2c2ccnc(C)c21 | 7.4 µg/mL (≈ 30.8 µM) |
| Br.COc1cc2[nH]c3c(C)nccc3c2cc1Br | 7.3 µg/mL |
| CCC[n+]1ccc2c([nH]c3cc(OC)ccc32)c1C.[I-] | 15 µg/mL |
| CCCCn1c2cc(OC)ccc2c2ccnc(C)c21 | 11 µg/mL (≈ 41 µM) |
| CCC(CC)C1NC(C(=O)O)Cc2c1[nH]c1cc(OC)ccc21 (stereo unspecified) | > 20 µg/mL |
| COc1ccc2c3c([nH]c2c1)C(C)N(N=O)CC3 (stereo unspecified) | > 10 µg/mL |
| Cc1cc(O)n2c(n1)nc1ccccc12 | > 10 µg/mL |
| COc1ccc2c3ccn(C)c(C)c-3nc2c1 | 7.8 µg/mL (≈ 34.5 µM) |
| COc1ccc2c3ccnc(C)c3n(C)c2c1 | 5 µg/mL (≈ 22.1 µM) |
| Cc1nccc2c1[nH]c1cc(OC(C)C)ccc12 | 12.3 µg/mL (≈ 51.2 µM) |

Test system: HCT-8
Experiment: In vitro cytotoxic activity was determined against ileocecal carcinoma (HCT-8) cell line
Type: functional
Settings: Homo sapiens, read-out: ED50 (the source's name)

| Structure (SMILES) | EC50 |
| --- | --- |
| CCn1c2cc(OC)ccc2c2ccnc(C)c21 | > 20 µg/mL |
| CCCCn1c2cc(OC)ccc2c2ccnc(C)c21 | > 20 µg/mL |
| COc1ccc2c3ccnc(C)c3n(C)c2c1 | > 20 µg/mL |

Test system: HCT-8
Experiment: In vitro cytotoxic activity was determined against ileocecal carcinoma (HCT-8) cell line; Not active
Type: functional, cell-based
Settings: Homo sapiens

| Structure (SMILES) | ED50 |
| --- | --- |
| Cc1nccc2c1[nH]c1cc(OC(C)C)ccc12 | inactive |

Test system: HEL
Experiment: In vitro cytotoxic activity was determined against embryonic lung fibroblast (HEL) cell line
Type: functional
Settings: Homo sapiens, read-out: ED50 (the source's name)

| Structure (SMILES) | EC50 |
| --- | --- |
| CCCn1c2cc(OC)ccc2c2cc[n+](C)c(C)c21.[I-] | 15 µg/mL |
| Cc1nccc2c1[nH]c1ccccc12 [HARMAN] | 9.8 µg/mL (≈ 53.8 µM) |
| CCC[n+]1ccc2c([nH]c3cc(OC)ccc32)c1C.[I-] | 9.5 µg/mL |
| CCC(CC)C1NC(C(=O)O)Cc2c1[nH]c1cc(OC)ccc21 (stereo unspecified) | > 20 µg/mL |

Test system: HOS
Experiment: In vitro cytotoxic activity was determined against osteosarcoma ( HOS) cell line
Type: functional
Settings: Homo sapiens, read-out: ED50 (the source's name)

| Structure (SMILES) | EC50 |
| --- | --- |
| Cc1nccc2c1[nH]c1cc(OC(C)C)ccc12 | 10.2 µg/mL (≈ 42.4 µM) |

Test system: KB
Experiment: In vitro cytotoxic activity was determined against drug resistant tumor cell line KB-7d (pleotrophic resistance including MRP multidrug resistant protein)
Type: functional
Settings: Homo sapiens, read-out: ED50 (the source's name)

| Structure (SMILES) | EC50 |
| --- | --- |
| CCCn1c2cc(OC)ccc2c2cc[n+](C)c(C)c21.[I-] | 35.5 µg/mL |
| Cc1nccc2c1[nH]c1ccccc12 [HARMAN] | 16.5 µg/mL (≈ 90.5 µM) |

Test system: KB
Experiment: In vitro cytotoxic activity was determined against epidermoid carcinoma of the nasopharynx (KB) cell line
Type: functional
Settings: Homo sapiens, read-out: ED50 (the source's name)

| Structure (SMILES) | EC50 |
| --- | --- |
| CCCn1c2cc(OC)ccc2c2cc[n+](C)c(C)c21.[I-] | 1.8 µg/mL |
| Cc1nccc2c1[nH]c1ccccc12 [HARMAN] | 8.9 µg/mL (≈ 48.8 µM) |
| CC(=O)Oc1ccc2c(c1)[nH]c1c(C)nccc12 | 19.5 µg/mL (≈ 81.2 µM) |
| CCn1c2cc(OC)ccc2c2ccnc(C)c21 | 1.8 µg/mL (≈ 7.49 µM) |
| Br.COc1cc2[nH]c3c(C)nccc3c2cc1Br | 3.5 µg/mL |
| CCC[n+]1ccc2c([nH]c3cc(OC)ccc32)c1C.[I-] | 5 µg/mL |
| CCCCn1c2cc(OC)ccc2c2ccnc(C)c21 | 7.8 µg/mL (≈ 29.1 µM) |
| CCC(CC)C1NC(C(=O)O)Cc2c1[nH]c1cc(OC)ccc21 (stereo unspecified) | 20 µg/mL (≈ 63.2 µM) |
| COc1ccc2c3c([nH]c2c1)C(C)N(N=O)CC3 (stereo unspecified) | 4.7 µg/mL (≈ 19.2 µM) |
| Cc1cc(O)n2c(n1)nc1ccccc12 | > 10 µg/mL |
| COc1ccc2c3ccn(C)c(C)c-3nc2c1 | 6.4 µg/mL (≈ 28.3 µM) |
| COc1ccc2c3ccnc(C)c3n(C)c2c1 | 2.2 µg/mL (≈ 9.72 µM) |
| Cc1nccc2c1[nH]c1cc(OC(C)C)ccc12 | 12.8 µg/mL (≈ 53.3 µM) |

Test system: KB
Experiment: In vitro cytotoxic activity was determined against drug resistant tumor cell line KB-CPT (pleotrophic mechanism including level of topoisomerase I)
Type: functional
Settings: Homo sapiens, read-out: ED50 (the source's name)

| Structure (SMILES) | EC50 |
| --- | --- |
| CCCn1c2cc(OC)ccc2c2cc[n+](C)c(C)c21.[I-] | 3 µg/mL |
| Cc1nccc2c1[nH]c1ccccc12 [HARMAN] | 15 µg/mL (≈ 82.3 µM) |

Test system: KB
Experiment: In vitro cytotoxic activity was determined against drug resistant tumor cell line KB-VIN (expressing P-glycoprotein)
Type: functional
Settings: Homo sapiens, read-out: ED50 (the source's name)

| Structure (SMILES) | EC50 |
| --- | --- |
| CCCn1c2cc(OC)ccc2c2cc[n+](C)c(C)c21.[I-] | > 40 µg/mL |
| Cc1nccc2c1[nH]c1ccccc12 [HARMAN] | 17.5 µg/mL (≈ 96 µM) |

Test system: MCF7
Experiment: In vitro cytotoxic activity against MCF-7 (human breast cancer) cell line.
Type: functional
Settings: read-out: ED50 (the source's name)

| Structure (SMILES) | EC50 |
| --- | --- |
| CCCn1c2cc(OC)ccc2c2cc[n+](C)c(C)c21.[I-] | > 20 µg/mL |
| Cc1nccc2c1[nH]c1ccccc12 [HARMAN] | 19 µg/mL (≈ 104 µM) |
| CC(=O)Oc1ccc2c(c1)[nH]c1c(C)nccc12 | 7.5 µg/mL (≈ 31.2 µM) |
| CCn1c2cc(OC)ccc2c2ccnc(C)c21 | 5.3 µg/mL (≈ 22.1 µM) |
| Br.COc1cc2[nH]c3c(C)nccc3c2cc1Br | 5.6 µg/mL |
| CCCCn1c2cc(OC)ccc2c2ccnc(C)c21 | 9.5 µg/mL (≈ 35.4 µM) |
| COc1ccc2c3c([nH]c2c1)C(C)N(N=O)CC3 (stereo unspecified) | > 10 µg/mL |
| Cc1cc(O)n2c(n1)nc1ccccc12 | > 10 µg/mL |
| COc1ccc2c3ccn(C)c(C)c-3nc2c1 | 5.6 µg/mL (≈ 24.7 µM) |
| COc1ccc2c3ccnc(C)c3n(C)c2c1 | 4.3 µg/mL (≈ 19 µM) |
| Cc1nccc2c1[nH]c1cc(OC(C)C)ccc12 | 11.9 µg/mL (≈ 49.5 µM) |

Test system: SK-MEL-2
Experiment: In vitro cytotoxic activity was determined against melanoma cancer (SK-MEL-2) cell line
Type: functional
Settings: Homo sapiens, read-out: ED50 (the source's name)

| Structure (SMILES) | EC50 |
| --- | --- |
| CCCn1c2cc(OC)ccc2c2cc[n+](C)c(C)c21.[I-] | 18 µg/mL |
| Cc1nccc2c1[nH]c1ccccc12 [HARMAN] | > 20 µg/mL |
| CC(=O)Oc1ccc2c(c1)[nH]c1c(C)nccc12 | 5 µg/mL (≈ 20.8 µM) |
| Br.COc1cc2[nH]c3c(C)nccc3c2cc1Br | 5 µg/mL |
| COc1ccc2c3c([nH]c2c1)C(C)N(N=O)CC3 (stereo unspecified) | > 10 µg/mL |
| Cc1cc(O)n2c(n1)nc1ccccc12 | > 10 µg/mL |
| COc1ccc2c3ccn(C)c(C)c-3nc2c1 | 10 µg/mL (≈ 44.2 µM) |

Test system: SK-MEL-2
Experiment: In vitro cytotoxic activity was determined against melanoma cancer (SK-MEL-2) cell line; Not active
Type: functional, cell-based
Settings: Homo sapiens

| Structure (SMILES) | ED50 |
| --- | --- |
| Cc1nccc2c1[nH]c1cc(OC(C)C)ccc12 | inactive |

Test system: U-87 MG
Experiment: In vitro cytotoxic activity against U-87-MG (glioblastoma) cell line.
Type: functional, U-87MG ATCC
Settings: Homo sapiens, read-out: ED50 (the source's name)

| Structure (SMILES) | EC50 |
| --- | --- |
| CCCn1c2cc(OC)ccc2c2cc[n+](C)c(C)c21.[I-] | > 20 µg/mL |
| Cc1nccc2c1[nH]c1ccccc12 [HARMAN] | 19 µg/mL (≈ 104 µM) |
| CCn1c2cc(OC)ccc2c2ccnc(C)c21 | 7.4 µg/mL (≈ 30.8 µM) |
| Br.COc1cc2[nH]c3c(C)nccc3c2cc1Br | 6.7 µg/mL |
| CCCCn1c2cc(OC)ccc2c2ccnc(C)c21 | 12.3 µg/mL (≈ 45.8 µM) |
| COc1ccc2c3c([nH]c2c1)C(C)N(N=O)CC3 (stereo unspecified) | > 10 µg/mL |
| COc1ccc2c3ccn(C)c(C)c-3nc2c1 | 9 µg/mL (≈ 39.8 µM) |
| COc1ccc2c3ccnc(C)c3n(C)c2c1 | 7.8 µg/mL (≈ 34.5 µM) |
| Cc1nccc2c1[nH]c1cc(OC(C)C)ccc12 | 16.4 µg/mL (≈ 68.2 µM) |

Test system: U-87 MG
Experiment: In vitro cytotoxic activity was determined against glioblastoma (U-87-MG) cell line; Not active
Type: functional, cell-based
Settings: Homo sapiens; U-87MG ATCC

| Structure (SMILES) | ED50 |
| --- | --- |
| Cc1cc(O)n2c(n1)nc1ccccc12 | inactive |

Test system: SAOS-2
Experiment: In vitro cytotoxic activity was determined against osteosarcoma (SaOS-2) cell line
Type: functional
Settings: Homo sapiens, read-out: ED50 (the source's name)

| Structure (SMILES) | EC50 |
| --- | --- |
| CC(=O)Oc1ccc2c(c1)[nH]c1c(C)nccc12 | > 20 µg/mL |
| Br.COc1cc2[nH]c3c(C)nccc3c2cc1Br | 6.8 µg/mL |
| COc1ccc2c3c([nH]c2c1)C(C)N(N=O)CC3 (stereo unspecified) | > 10 µg/mL |
| Cc1cc(O)n2c(n1)nc1ccccc12 | > 10 µg/mL |
| COc1ccc2c3ccn(C)c(C)c-3nc2c1 | 9.6 µg/mL (≈ 42.4 µM) |

Test system: 1A9
Experiment: In vitro cytotoxic activity was determined against ovarian cancer (1A9) cell line
Type: functional
Settings: Homo sapiens, read-out: ED50 (the source's name)

| Structure (SMILES) | EC50 |
| --- | --- |
| CCCn1c2cc(OC)ccc2c2cc[n+](C)c(C)c21.[I-] | < 1.3 µg/mL |
| Cc1nccc2c1[nH]c1ccccc12 [HARMAN] | 6.1 µg/mL (≈ 33.5 µM) |
| CC(=O)Oc1ccc2c(c1)[nH]c1c(C)nccc12 | 4.5 µg/mL (≈ 18.7 µM) |
| CCn1c2cc(OC)ccc2c2ccnc(C)c21 | 1.8 µg/mL (≈ 7.49 µM) |
| Br.COc1cc2[nH]c3c(C)nccc3c2cc1Br | 1.9 µg/mL |
| CCC[n+]1ccc2c([nH]c3cc(OC)ccc32)c1C.[I-] | 2 µg/mL |
| CCCCn1c2cc(OC)ccc2c2ccnc(C)c21 | 2.2 µg/mL (≈ 8.2 µM) |
| CCC(CC)C1NC(C(=O)O)Cc2c1[nH]c1cc(OC)ccc21 (stereo unspecified) | > 20 µg/mL |
| COc1ccc2c3c([nH]c2c1)C(C)N(N=O)CC3 (stereo unspecified) | > 10 µg/mL |
| Cc1cc(O)n2c(n1)nc1ccccc12 | > 10 µg/mL |
| COc1ccc2c3ccn(C)c(C)c-3nc2c1 | 7 µg/mL (≈ 30.9 µM) |
| COc1ccc2c3ccnc(C)c3n(C)c2c1 | 1.8 µg/mL (≈ 7.95 µM) |
| Cc1nccc2c1[nH]c1cc(OC(C)C)ccc12 | 7.9 µg/mL (≈ 32.9 µM) |
